Tests used:
Format in all cases: physicochemical
[1] = RP-HPLC retention at neutral pH, Aqua C18, sodium phosphate; details: Aqua C18 (3 µm, 125 Å), sodium phosphate 10 mmol/L pH 7.2, 0.6% acetonitrile/min, 60 °C, UV 214 nm, mixture of family #2, order from individual injections
Procedure: (§1) Separations used either a Synergi Fusion-RP C18 column (ID: 2 mm, length: 150 mm, particle size: 4 µm, pore size: 80 Å, Phenomenex) or Aqua C18 column (ID: 2 mm, length: 150 mm, particle size: 3 µm, pore size: 125 Å, Phenomenex) using a System Gold HPLC equipped with a 507e autosampler (100 µL injection volume), a 125NM binary gradient pump, and a 166 UV/VIS detector. Eluents were water (eluent B1) and aqueous acetonitrile (60% v/v, eluent B2 or 40% v/v, eluent B3) containing sodium or potassium phosphate buffer or ammonium acetate (10 mmol/L). Eluents were prepared from aqueous stock solutions (0.1 mol/L) adjusted to pH 7.2, in case of ammonium acetate with ammonia. Solvents were filtered (pore size, 0.2 µm; Pall Corp., Ann Arbor, MI) and sonicated for 15 min prior to use. Peptides were eluted using a linear acetonitrile gradient from either 5 to 95% eluent B2 in 30 min, 5 to 70% eluent B2 in 65 min, or 7.5 to 95% eluent B3 in 58 min. Unless otherwise indicated, separations were performed at 60 °C with a flow rate of 0.2 mL/min and the absorbance was recorded at 214 nm. Fractions were analyzed by matrix-assisted laser desorption/ionization time-of-flight MS (MALDI-TOF/TOF–MS) on a 5800 proteomic analyzer (ABSciex GmbH, Darmstadt, Germany) operating in reflector mode and using a solution of α-cyano-4-hydroxycinnamic acid (4 g/L) in eluent A2 as matrix.

[2] = RP-HPLC retention at neutral pH, Synergi Fusion RP, potassium phosphate; details: potassium phosphate 10 mmol/L pH 7.2, 60 °C, UV 214 nm; for retention time (tr): Synergi Fusion RP, family #2 mixture (Fig. S10)
Procedure: as §1

[3] = nanoUPLC-ESI-Orbitrap-MS retention, BEH C18, 0.1% formic acid; details: nanoRP-UPLC, 30 °C, XIC; for retention time (tr): Acquity BEH C18 (1.7 µm), 87-min gradient 3 to 40% acetonitrile, glycated peptide mixture, 500 fmol each, glucated peptide or glucosyl-lysine species of the fructated peptide; for retention time (tr), mannosyl-lysine species: Acquity BEH C18, 87-min gradient 3 to 40% acetonitrile, second peak of the fructated peptide (mannosyl-lysine)
Procedure: Peptides were analyzed on a nanoAcquity UPLC (Waters GmbH) coupled on-line to an LTQ Orbitrap XL ETD mass spectrometer equipped with a nano-ESI source (Thermo Fisher Scientific GmbH, Bremen, Germany) operated in positive ion mode. Eluents were aqueous formic acid (0.1% v/v; eluent D1) and acetonitrile-containing formic acid (0.1% v/v; eluent D2). Peptides (10 µL, 500 fmol each) were trapped on a nanoAcquity Symmetry C18 column (ID: 180 μm, length: 2 cm, particle diameter: 5 μm) at a flow rate of 5 μL/min (3% eluent D2). Separation was achieved on a BEH 130 column (C18 phase, ID: 75 μm, length: 10 cm, particle diameter: 1.7 μm) using a flow rate of 0.4 μL/min and a column temperature of 30 °C. Peptides were eluted with two linear gradients from 3 to 40% eluent D2 in 87 min and then to 85% eluent D2 in 5 min. The transfer capillary temperature was set to 200 °C, and an ion spray voltage of 1.4 kV was applied to a PicoTip™ on-line nano-ESI emitter (New Objective, Berlin, Germany). Mass spectra (m/z range 400 to 2000) were recorded in the Orbitrap mass analyzer at a resolution of 60,000 at m/z 400. Tandem mass spectra were acquired in CID mode (isolation width 2 m/z units, normalized collision energy 35%, activation time 30 ms, default charge state 2, intensity threshold of 500 counts) using data-dependent acquisition (DDA) for the six most intense signals with a dynamic exclusion window of 60 s.

[4] = IP-RP-HPLC retention, Jupiter C18, 0.1% TFA; details: 60 °C, UV 214 nm
Procedure: Separations used a Jupiter C18 column (ID: 2 mm, length: 150 mm, particle size: 5 µm, pore size: 300 Å, Phenomenex) and a System Gold HPLC equipped with a 508 autosampler (100 µL injection volume), a 125NM binary gradient pump, and a UV detector (Knauer GmbH, Berlin, Germany). Eluents were 0.1% (v/v) TFA (eluent A1) and 60% (v/v) aqueous acetonitrile containing 0.1% (v/v) TFA (eluent A2). Peptides were eluted using a linear acetonitrile gradient from either 5 to 95% eluent A2 in 30 min or 5 to 60% eluent A2 in 55 min. Separations were performed at a column temperature of 60 °C with a flow rate of 0.2 mL/min, and the absorbance was recorded at 214 nm. Separations were performed twice with deviations of the retention times of ~ 0.2 min for the shallow gradient.

[5] = RP-HPLC retention at neutral pH, Synergi Fusion RP, sodium phosphate; details: linear 65-min gradient 3 to 42% acetonitrile, sodium phosphate 10 mmol/L pH 7.2, 60 °C, UV 214 nm, family mixture
Procedure: as §1

[6] = Jupiter C18, 0.1% TFA, 0.6% acetonitrile/min, family injected as a mixture (Fig. S3F)

What does the source list for “ADLAKAmaYIC*ENQDSISSK [2B, glucated (Amadori) tryptic peptide HSA A258-K274, K262]”?
retention time (tr) [1]: 38.0 min; retention time (tr) [2]: 32.9 min

For “TC*VADESAENC*DKHeySLHTLFGDK [3C, fructated (Heyns) tryptic peptide HSA T52-K73, K64]”, which retention time ([2]; new Synergi Fusion RP column, 58-min gradient 3 to 38% acetonitrile (eluent B3, 0.6%/min)) is on record?
The retention time was 26.2 min.

Which “retention time (tr)” value [3] does the source give for “EQLKHeyAVMDDFAAFVEK [7C, fructated (Heyns) tryptic peptide HSA E542-K557, K545]” here?
The value was 59.5 min.

And the “retention time (tr), mannosyl-lysine species” value [3]?
The value was 60.2 min.

For “AVGDKHeyLPEC*EAVC*GKPK [1C, fructated (Heyns) tryptic peptide HP A77-K93, glycation site K81]”, which retention time ([4]; Jupiter C18 (5 µm, 300 Å), 0.1% TFA, 5 to 60% eluent A2 in 55 min (0.6% acetonitrile/min), 0.2 mL/min, performed twice, deviations ~0.2 min) is on record?
Its retention time is 27.6 min.

What about the “acetonitrile content at elution” value ([4]; Jupiter C18, 0.1% TFA, 0.6% acetonitrile/min) of the same substance?
Its value is ~ 13%.

With “AEFAEVSKAmaLVTDLTK [6B, glucated (Amadori) tryptic peptide HSA A226-K240, K233]” as the substance, how does the retention time [4, 6] read?
The retention time was 52.2 min.

And the “retention time (tr)” value [5]?
The value was 45.3 min.

What about the “retention time (tr)” value [3] of the same substance?
Its value is 56.0 min.

Which “retention time (tr)” value [1] does the source give for “ADLAKHeyYIC*ENQDSISSK [2C, fructated (Heyns) tryptic peptide HSA A258-K274, K262]” here?
Its value is 36.5 min.

What about the “retention time (tr)” value [2] of the same substance?
Its value is 31.4 min.

Which “retention time (tr)” value [3] does the source give for “EQLKAmaAVMDDFAAFVEK [7B, glucated (Amadori) tryptic peptide HSA E542-K557, K545]” here?
Its value is 59.5 min.

Which results are given for “AEFAEVSKHeyLVTDLTK [6C, fructated (Heyns) tryptic peptide HSA A226-K240, K233]”?
retention time [4, 6]: 51.9 min; retention time (tr) [5]: 43.4 min; retention time (tr) [3]: 55.7 min; retention time (tr), mannosyl-lysine species [3]: 56.3 min
